What all share (assay type): functional, cell-based
The test system of one assay is HeLa. In words: Cytotoxicity against human HeLa cells after 48 hrs by MTT assay.
Another assay deals with Raji. In words: Cytotoxicity against human Raji cells after 48 hrs by MTT assay. In general terms: Tetrazolium assays rely on reduction of a dye to a coloured formazan, in cell work by metabolically active cells.
For another assay, the system named is A549. In words: Cytotoxicity against human A549 cells after 48 hrs by MTT assay. The note with it: A549, 48 h.
The test system of the next assay is SGC-7901. The experiment in a line: Cytotoxicity against human SGC7901 cells after 48 hrs by MTT assay. To be noted: SGC-7901, 48 h.

Molecules are shown by their SMILES.

As a reminder, the IC50 is the midpoint of a concentration-inhibition curve. The low end stands for higher potency, the high end for lower potency.

In the case of `CCOC(=O)[C@]1(C)CCC[C@@]2(C)[C@@H]3CC[C@@]4(C)C[C@]3(CC[C@@H]21)[C@@H]1CON(C(=S)Nc2ccccc2)[C@@H]14`, the IC50 was above 50 µM in the assay on HeLa, 32.5 µM in the assay on Raji, above 50 µM with A549 and 27.6 µM in the assay with SGC-7901.
Consider `CCOC(=O)[C@]1(C)CCC[C@@]2(C)[C@@H]3CC[C@@]4(C)C[C@]3(CC[C@@H]21)[C@@H]1CON(C(=S)Nc2ccccc2F)[C@@H]14`, for which the IC50 in the assay with HeLa is above 50 µM; in the assay with Raji, 32.7 µM; in the assay with A549 it was above 50 µM; in the assay on SGC-7901, 28.2 µM.
Turning to `CCOC(=O)[C@]1(C)CCC[C@@]2(C)[C@@H]3CC[C@@]4(C)C[C@]3(CC[C@@H]21)[C@@H]1CON(C(=S)Nc2cccc(F)c2)[C@@H]14`, the IC50 with HeLa is above 50 µM; with Raji, 36.4 µM; with A549, above 50 µM; in the assay with SGC-7901, above 50 µM.
Consider `CCOC(=O)[C@]1(C)CCC[C@@]2(C)[C@@H]3CC[C@@]4(C)C[C@]3(CC[C@@H]21)[C@@H]1CON(C(=S)Nc2ccc(F)cc2)[C@@H]14`, for which the IC50 in the assay with HeLa, in the assay with Raji, with A549 and with SGC-7901 was above 50 µM in each case.
For `CCOC(=O)[C@]1(C)CCC[C@@]2(C)[C@@H]3CC[C@@]4(C)C[C@]3(CC[C@@H]21)[C@@H]1CON(C(=S)Nc2ccccc2Cl)[C@@H]14`, the IC50 in the assay with HeLa was above 50 µM; with Raji, 35.6 µM; in the assay on A549, above 50 µM; in the assay on SGC-7901 it was 43.6 µM.
On to `CCOC(=O)[C@]1(C)CCC[C@@]2(C)[C@@H]3CC[C@@]4(C)C[C@]3(CC[C@@H]21)[C@@H]1CON(C(=S)Nc2cccc(Cl)c2)[C@@H]14`, for which the IC50 with HeLa, in the assay on Raji, in the assay on A549 and in the assay on SGC-7901 was above 50 µM in each case.
Consider `CCOC(=O)[C@]1(C)CCC[C@@]2(C)[C@@H]3CC[C@@]4(C)C[C@]3(CC[C@@H]21)[C@@H]1CON(C(=S)Nc2ccc(Cl)cc2)[C@@H]14`, for which the IC50 with HeLa, in the assay with Raji, with A549 and in the assay with SGC-7901 was above 50 µM throughout.
Take `CCOC(=O)[C@]1(C)CCC[C@@]2(C)[C@@H]3CC[C@@]4(C)C[C@]3(CC[C@@H]21)[C@@H]1CON(C(=S)Nc2ccccc2Br)[C@@H]14`: the IC50 in the assay on HeLa, in the assay on Raji, with A549 and with SGC-7901 was above 50 µM in each case.
Regarding `CCOC(=O)[C@]1(C)CCC[C@@]2(C)[C@@H]3CC[C@@]4(C)C[C@]3(CC[C@@H]21)[C@@H]1CON(C(=S)Nc2cccc(Br)c2)[C@@H]14`, the IC50 with HeLa was above 50 µM; in the assay with Raji, above 50 µM; in the assay with A549, above 50 µM; in the assay with SGC-7901, 36.4 µM.
Take `C[C@@]12CC[C@@H]3[C@@](CC[C@H]4[C@@]3(C)CCC[C@@]4(C)C(=O)O)(CC1=O)C2` [ISOSTEVIOL]: the IC50 in the assay on HeLa, in the assay on Raji, in the assay with A549 and with SGC-7901 was above 50 µM throughout.
